The test system of data set [1] is AS1411 (DNA, G4) GGTGGTGGTGGTTGTGGTGGTGGTGG
Description: fluorescence titration of ligand, Hill model. The conditions noted are these: 100 mM KCl, 30 mM potassium phosphate; pH 7.2; 5 μM C8; apparent; Hill n 2.8; SD ≤ 1 × 10^−8 M.

For data set [2] the test system is unchanged. Description: CD melting. Particulars: 10 mM KCl, 90 mM LiCl; 10 mM lithium cacodylate, pH 7.2; 2 molar equivalents C8; Tm without ligand 56.3 °C.
In data set [3] the test system is U-AS1411 (DNA, G4, uracil in place of thymine at 12 and 13 (text: dT to rU substitutions)) GGTGGTGGTGGUUGTGGTGGTGGTGG
Description: fluorescence titration of ligand, Hill model. Particulars: 100 mM KCl, 30 mM potassium phosphate; pH 7.2; 5 μM C8; apparent; Hill n 2.5; SD ≤ 1 × 10^−8 M.

The test system of data set [4] is 5'-FAM-AS1411-TAMRA-3' (DNA, G4) GGTGGTGGTGGTTGTGGTGGTGGTGG
Description: FRET melting. The conditions noted are these: 10 mM KCl, 90 mM LiCl; 10 mM lithium cacodylate, pH 7.2; 1 µM C8, 0.2 µM DNA; no nucleolin; Tm 46.9 °C.

For data set [5], the system named is U-AS1411 (DNA, G4, uracil in place of thymine at 12 and 13 (text: dT to rU substitutions)) GGTGGTGGTGGUUGTGGTGGTGGTGG
Description: CD melting. The conditions noted are these: 10 mM KCl, 90 mM LiCl; 10 mM lithium cacodylate, pH 7.2; 2 molar equivalents C8; Tm without ligand 52.6 °C.

The next data set concerns the target nucleolin (UniProt P19338). Description: fluorescence titration. Particulars: Fluorescence titration: buffer for the nucleolin titration not stated separately (C8-aptamer titrations: 30 mM potassium phosphate pH 7.2, 100 mM KCl).
UniProt P19338, sequence (P19338 whole entry): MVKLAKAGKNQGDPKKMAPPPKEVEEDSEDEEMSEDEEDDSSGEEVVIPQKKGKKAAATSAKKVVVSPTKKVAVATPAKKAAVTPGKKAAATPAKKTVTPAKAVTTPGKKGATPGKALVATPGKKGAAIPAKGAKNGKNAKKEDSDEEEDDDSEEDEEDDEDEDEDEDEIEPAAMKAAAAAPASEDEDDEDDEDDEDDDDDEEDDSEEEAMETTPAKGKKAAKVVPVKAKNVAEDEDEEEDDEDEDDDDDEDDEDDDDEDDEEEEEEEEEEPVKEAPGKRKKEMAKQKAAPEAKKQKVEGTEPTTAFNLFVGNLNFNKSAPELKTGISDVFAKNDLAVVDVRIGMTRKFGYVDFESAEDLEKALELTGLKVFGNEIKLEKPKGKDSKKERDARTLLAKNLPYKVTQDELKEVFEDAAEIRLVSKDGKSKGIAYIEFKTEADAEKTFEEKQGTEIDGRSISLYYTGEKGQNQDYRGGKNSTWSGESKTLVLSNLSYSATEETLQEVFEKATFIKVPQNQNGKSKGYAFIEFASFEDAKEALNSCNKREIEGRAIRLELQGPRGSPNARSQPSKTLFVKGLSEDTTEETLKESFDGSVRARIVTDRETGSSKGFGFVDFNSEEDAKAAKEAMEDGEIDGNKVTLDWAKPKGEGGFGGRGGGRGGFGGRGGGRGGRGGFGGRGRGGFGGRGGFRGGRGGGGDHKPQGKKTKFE

A word on the ΔTm: it is the change in melting temperature against a reference sample. In the case of `CN(C)c1ccc2cc3ccc(N(C)C)cc3[n+](CCCCCCCCNC(=O)c3ccc(I)cc3)c2c1`, the figures for the KD in data set [1] and in data set [3] were 1290 nM and 1370 nM, respectively. Further, the ΔTm in data set [2] turned out to be 28.4 ± 0.2 °C; in data set [4] it was 13.1 ± 0.8 °C; in data set [5], 24.5 ± 0.4 °C.

For orientation: Kd means a measure of binding affinity in units of concentration. A higher Kd goes with weaker binding. Turning to GGTGGTGGTGGTTGTGGTGGTGGTGG [Cy3-AS1411], the Kd with nucleolin (no C8, Cy3-AS1411 at 1 uM (Kd far below probe concentration)) stood at 0.00863 nM; with nucleolin (with ligand C8, Cy3-AS1411 at 1 uM (Kd far below probe concentration)), 0.00638 nM.

The record behind these values is publication PMC6538641 (2019).
